Test results taken from patent US20190388421A1, “NOVEL COMPOUNDS AND PHARMACEUTICAL COMPOSITIONS THEREOF FOR THE TREATMENT OF FIBROSIS” (Galapagos NV, priority 2016, published 2019).
pEC50: −log10 of the molar value.

Experiments:
[1] = molecular target: T1, human GPCR sphingosine 1-phosphate receptor 5 (S1PR5) (Homo sapiens, UniProt Q9H228); test: S1PR5 selectivity assay (Ca2+ flux, antagonist, S1PR5 specific agonist trigger); format: cell-based; details: S1P5 antagonist EC50, CHO cells overexpressing human S1PR5 and Gq protein
T1 construct: host or cells: CHO
Procedure: (§1) After readout of the agonist activity, the plates are incubated for 15 min at 37° C. and 5% CO2. Then, cells are stimulated with 10 μL Sphingosine-1-Phosphate (S1P) (Avanti Polar lipids-860492P) at its EC80 concentration. Intracellular Ca^2+ changes are immediately measured by reading fluorescence during 3 min (FDSS/μCELL reader). The ratio of the maximal fluorescence over the background fluorescence before compound injection is used to determine compound response.
(§2) For EC50 determination, a 10 point dilution series of compounds starting from 23.3 μM and 20 μM highest final concentration for agonist and antagonist respectively, ⅓ dilution was performed.
(§3) The obtained ratio's for agonist and antagonist readout were normalized versus vehicle and EC100 of S1P as controls for agonist mode and versus vehicle and EC80 of S1P for antagonist mode. From these normalized data EC50 of the compounds are derived.
(§4) To evaluate the selectivity of the compounds for S1PR2 over S1PR1 and S1PR5, a similar assay set up as described above for the S1PR2 calcium flux assays was performed: CHO cells stably overexpressing human GPCR sphingosine 1-phosphate receptor 1 and Gq protein (Euroscreen, FAST-0197A) or overexpressing human GPCR sphingosine 1-phosphate receptor 5 and Gq protein were used (Perkin Elmer, ES-593-A). In case of the S1PR5 assay triggering was done with an S1PR5 specific agonist instead of with S1P (Hobson et al., 2015).

S1PR2 = molecular target: T2, S1PR2 (Homo sapiens, UniProt O95136); test: GTP-γS binding assay ([35S]GTPγS, S1P at EC80, S1PR2 membranes); format: biochemical; details: membranes from stable cell line over expressing S1PR2, read-out: S1PR2 EC
T2 construct: expressed in transfected cells
Procedure: The following assay can be used for determination of S1PR2 activation. The [^35S] GTPγS assay measures the level of G protein activation following agonist occupation of a GPCR, by determining the binding of the non-hydrolysable analog [^35S] GTPγS to Gα subunits.
The assay is performed in a 96 well plate where the following reagents are added. First 50 μL compound is added into the assay plate, followed by addition of 20 μL S1P at EC80 concentration (concentration which gives 80% of the activity of S1PR2). Then, 30 μL of a mixture consisting of membranes-GTPγS-SpA beads is added [mixture consists of 2.5 μg/well membranes derived from stable cell line over expressing S1PR2 (membranes are pre-incubated with 1 μM GDP for 15 min at 4° C.), 0.1 nM [35S]GTPγS (Perkin Elmer, NEG030) and 0.5 mg/well PVT-WGA SpA beads (Perkin Elmer, RPNQ0001)]. All components are diluted in assay buffer containing 20 mM Tris pH 7.5; 10 mM MgCl2; 100 mM NaCl; 0.1% BSA FAF; 50 ug/ml saponin. After an incubation for 4 h at room temperature, plates are centrifuged at 2000 rpm during 20 min. Plates are read on a Topcount reader (Perkin Elmer) immediately after centrifugation (readout time, 1 min/well).

[2] = molecular target: T3, human GPCR sphingosine 1-phosphate receptor 1 (S1PR1) (Homo sapiens, UniProt P21453); test: S1PR1 selectivity assay (Ca2+ flux, antagonist); format: cell-based; details: S1P1 antagonist EC50, CHO cells overexpressing human S1PR1 and Gq protein
T3 construct: host or cells: CHO
Procedure: as §1, §2, §3, §4

[3] = molecular target: T4, human GPCR sphingosine 1-phosphate receptor 2 (S1PR2) (Homo sapiens, UniProt O95136); test: S1P2 antagonist assay (Ca2+ flux, S1P at EC80); format: cell-based; details: CHO-S1PR2 cells, highest concentration 20 μM
T4 construct: host or cells: CHO
Procedure: Triggering of S1PR2 by administration of Sphingosine-1-phosphate leads to a transient increase in intracellular Ca^2+. The Ca^2+ flux assays are measuring the release of Ca^2+ intracellularly by use of a Ca^2+ sensitive fluorescent dye. The assay is firstly run in agonist mode (incubation of compounds alone) to ensure that the Ca^2+ released measured is not caused by the test compound having an agonistic effect. Then the assay is continued in antagonist mode (Sphingosine-1-Phosphate added to incubated medium containing the test compounds).
CHO cells stably overexpressing human GPCR sphingosine 1-phosphate receptor 2 (CHO—S1PR2 Perkin Elmer; ES-594-A) are seeded from a frozen stock in 384 wells sterile microplates (50 μL; 7,500 cells/well) and are incubated overnight at 37° C. and 5% CO2. The next day cells are washed twice with starvation medium (F-12 Ham's medium containing 0.1% BSA (Fatty acid free: FAF)) and left in […] starvation medium for 1 h at 37° C., 5% CO2. After this starvation cells are incubated with […] buffer containing the Ca^2+-sensitive fluorescent dye (0.5 mg Fluo8+125 mg Allura Red in 100 ml of 1% DMSO, in HBSS+20 mM Hepes+5 mM probenecid). The cells are incubated for an additional 1 hour after which 10 μL compounds, diluted in HBSS buffer with 20 mM Hepes and 0.1% BSA (FAF), are added to the cells and intracellular Ca^2+ changes are immediately measured by reading fluorescence during 3 min (FDSS/μCELL reader). The ratio of the maximal fluorescence over the background fluorescence before compound injection is used to determine compound response.
as §1, §2, §3

T1 sequence (Q9H228 whole entry): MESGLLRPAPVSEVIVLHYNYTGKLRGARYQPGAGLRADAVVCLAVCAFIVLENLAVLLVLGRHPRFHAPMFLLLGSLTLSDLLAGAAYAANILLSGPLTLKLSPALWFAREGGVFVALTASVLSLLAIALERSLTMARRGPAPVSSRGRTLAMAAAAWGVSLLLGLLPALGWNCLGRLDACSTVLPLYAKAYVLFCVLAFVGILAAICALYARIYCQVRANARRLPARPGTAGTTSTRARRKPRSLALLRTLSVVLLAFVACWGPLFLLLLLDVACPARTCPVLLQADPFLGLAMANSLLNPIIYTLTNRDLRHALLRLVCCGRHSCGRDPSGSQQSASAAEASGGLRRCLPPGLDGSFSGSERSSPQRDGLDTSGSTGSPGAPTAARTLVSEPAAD
T4 sequence (O95136 whole entry): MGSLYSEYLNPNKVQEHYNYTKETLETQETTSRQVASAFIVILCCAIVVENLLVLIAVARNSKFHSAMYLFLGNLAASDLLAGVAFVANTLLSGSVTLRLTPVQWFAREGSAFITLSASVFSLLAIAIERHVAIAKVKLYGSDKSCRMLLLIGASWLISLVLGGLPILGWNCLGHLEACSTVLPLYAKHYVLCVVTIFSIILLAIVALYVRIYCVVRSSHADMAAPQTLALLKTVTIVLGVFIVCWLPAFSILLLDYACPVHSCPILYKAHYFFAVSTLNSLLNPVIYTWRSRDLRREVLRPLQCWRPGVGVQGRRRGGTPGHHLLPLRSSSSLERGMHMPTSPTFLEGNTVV
T2 sequence (O95136 whole entry): as above
T3 sequence (P21453 whole entry): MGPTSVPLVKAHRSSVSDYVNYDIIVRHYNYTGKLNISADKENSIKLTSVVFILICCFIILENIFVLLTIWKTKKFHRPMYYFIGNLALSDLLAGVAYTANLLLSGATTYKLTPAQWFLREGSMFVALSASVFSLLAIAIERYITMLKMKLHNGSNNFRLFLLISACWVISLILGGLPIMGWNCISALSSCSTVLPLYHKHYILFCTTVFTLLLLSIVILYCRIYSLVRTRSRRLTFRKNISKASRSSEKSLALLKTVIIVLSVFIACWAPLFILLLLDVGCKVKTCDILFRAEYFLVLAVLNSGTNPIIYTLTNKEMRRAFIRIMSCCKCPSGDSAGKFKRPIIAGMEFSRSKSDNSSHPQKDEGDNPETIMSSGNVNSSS

Row | SMILES | pEC50 [1] | pEC50 (S1PR2) | pEC50 [2] | pEC50 [3]
1 | Cc1cc(CNC(=O)Nc2cnc(OCC(F)F)c(Cl)c2)nnc1-c1cn(C)nc1C(F)(F)F [Compound 9, 1-[5-chloro-6-(2,2-difluoroethoxy)-3-pyridyl]-3-[[5-methyl-6-[1-methyl-3-(trifluoromethyl)pyrazol-4-yl]pyridazin-3-yl]methyl]urea] | ≤ 4.70 | 6.27 | ≤ 4.70 | 7.63
2 | CCOc1ncc(NC(=O)NCc2cc(C)c(-c3cn(C)nc3C(F)(F)F)nn2)cc1C(F)(F)F [Compound 10, 1-[6-ethoxy-5(trifluoromethyl)-3-pyridyl]-3-[[5-methyl-6-[1-methyl-3-(trifluoromethyl)pyrazol-4-yl]pyridazin-3-yl]methyl]urea] | ≤ 4.70 | 6.55 | ≤ 4.70 | 7.82
3 | CCOc1cc(NC(=O)NCc2cc(C)c(-c3cn(COC)nc3C(F)(F)F)nn2)cc(Cl)n1 [Compound 15] | ≤ 4.70 | 7.04 | 5.18 | 8.04
4 | Cc1cc(CNC(=O)Nc2cc(Cl)nc(OCC(F)F)c2)nnc1-c1cn(C)nc1C(F)(F)F [Compound 17, 1-[2-chloro-6-(2,2-difluoroethoxy)-4-pyridyl]-3-[[5-methyl-6-[1-methyl-3-(trifluoromethyl)pyrazol-4-yl]pyridazin-3-yl]methyl]urea] | 5.18 | 7.44 | 5.31 | 8.07
5 | CCOc1nc(Cl)cc(NC(=O)NCc2cc(C)c(-c3cn(C)nc3C(F)(F)F)nn2)c1C [Compound 20, 1-(6-chloro-2-ethoxy-3-methyl-4-pyridyl)-3-[[5-methyl-6-[1-methyl-3-(trifluoromethyl)pyrazol-4-yl]pyridazin-3-yl]methyl]urea] | 5.68 | 7.82 | 5.41 | 8.06
6 | CCOc1cc(NC(=O)NCc2cc(C)c(-c3cn(C)nc3C(F)(F)F)nn2)cc(C2CC2)n1 [Compound 22, 1-(2-cyclopropyl-6-ethoxy-4-pyridyl)-3-[[5-methyl-6-[1-methyl-3-(trifluoromethyl)pyrazol-4-yl]pyridazin-3-yl]methyl]urea] | ≤ 4.70 | 7.07 | 5.18 | 7.76
7 | Cc1cc(CNC(=O)Nc2cnc(Cl)c(OCC(F)F)c2)nnc1-c1cn(C)nc1C(F)(F)F [Compound 23, 1-[6-chloro-5-(2,2-difluoroethoxy)-3-pyridyl]-3-[[5-methyl-6-[1-methyl-3-(trifluoromethyl)pyrazol-4-yl]pyridazin-3-yl]methyl]urea] | ≤ 4.70 | 7.13 | ≤ 4.70 | 7.97
8 | CCOc1cc(NC(=O)NCc2cc(C)c(-c3cn(C)nc3C(F)(F)F)nn2)cnc1Cl [Compound 24, 1-(6-chloro-5-ethoxy-3-pyridyl)-3-[[5-methyl-6-[1-methyl-3-(trifluoromethyl)pyrazol-4-yl]pyridazin-3-yl]methyl]urea] | ≤ 4.70 | 7.27 | ≤ 4.70 | 8.06
9 | COCCOc1cc(NC(=O)NCc2cc(C)c(-c3cn(C)nc3C(F)(F)F)nn2)cc(C(F)(F)F)n1 [Compound 25, 1-[2-(2-methoxyethoxy)-6-(trifluoromethyl)-4-pyridyl]-3-[[5-methyl-6-[1-methyl-3-(trifluoromethyl)pyrazol-4-yl]pyridazin-3-yl]methyl]urea] | ≤ 4.70 | 5.69 | ≤ 4.70 | 6.10
10 | Cc1cc(CNC(=O)Nc2cc(OC3CCOC3)nc(C(F)(F)F)c2)nnc1-c1cn(C)nc1C(F)(F)F (centres unmarked) [Compound 26, 1-[[5-methyl-6-[1-methyl-3-(trifluoromethyl)pyrazol-4-yl]pyridazin-3-yl]methyl]-3-[2-tetrahydrofuran-3-yloxy-6-(trifluoromethyl)-4-pyridyl]urea] | ≤ 4.70 | 6.11 | ≤ 4.70 | 6.96
11 | COCCOc1cc(NC(=O)NCc2cc(C)c(-c3cn(C)nc3C(F)(F)F)nn2)cc(Cl)n1 [Compound 27, 1-[2-chloro-6-(2-methoxyethoxy)-4-pyridyl]-3-[[5-methyl-6-[1-methyl-3-(trifluoromethyl)pyrazol-4-yl]pyridazin-3-yl]methyl]urea] | ≤ 4.70 | 6.19 | ≤ 4.70 | 6.38
12 | Cc1cc(CNC(=O)Nc2cc(C#N)nc(OCC(F)F)c2)nnc1-c1cn(C)nc1C(F)(F)F [Compound 28, 1-[2-cyano-6-(2,2-difluoroethoxy)-4-pyridyl]-3-[[5-methyl-6-[1-methyl-3-(trifluoromethyl)pyrazol-4-yl]pyridazin-3-yl]methyl]urea] | 5.18 | 7.05 | 5.18 | 7.80
13 | Cc1cc(CNC(=O)Nc2cc(OCC(C)(F)F)nc(C(F)(F)F)c2)nnc1-c1cn(C)nc1C(F)(F)F [Compound 34, 1-[2-(2,2-difluoropropoxy)-6-(trifluoromethyl)-4-pyridyl]-3-[[5-methyl-6-[1-methyl-3-(trifluoromethyl)pyrazol-4-yl]pyridazin-3-yl]methyl]urea] | 5.18 | 6.39 | 5.69 | 7.18
14 | Cc1cc(CNC(=O)Nc2cc(OCC3COCCO3)nc(C(F)(F)F)c2)nnc1-c1cn(C)nc1C(F)(F)F (centres unmarked) [Compound 37, 1-[2-(1,4-dioxan-2-ylmethoxy)-6-(trifluoromethyl)4-pyridyl]-3-[[5-methyl-6-[1-methyl-3-(trifluoromethyl)pyrazol-4-yl]pyridazin-3-yl]methyl]urea] | ≤ 4.70 | 5.02 | ≤ 4.70 | 5.27
15 | Cc1cc(CNC(=O)Nc2ccnc(C(F)(F)F)c2)nnc1-c1cn(C)nc1C(F)(F)F [Compound 43, 1-[[5-methyl-6-[1-methyl-3-(trifluoromethyl)pyrazol-4-yl]pyridazin-3-yl]methyl]-3-[2-(trifluoromethyl)-4-pyridyl]urea] | ≤ 4.70 | 5.33 | ≤ 4.70 | 5.22
16 | Cc1cc(CNC(=O)Nc2ccnc(Cl)c2)nnc1-c1cn(C)nc1C(F)(F)F [Compound 44, 1-(2-chloro-4-pyridyl)-3-[[5-methyl-6-[1-methyl-3-(trifluoromethyl)pyrazol-4-yl]pyridazin-3-yl]methyl]urea] | ≤ 4.70 | 5.38 | ≤ 4.70 | 5.35
17 | CCOc1nc(C#N)cc(NC(=O)NCc2cc(C)c(-c3cn(C)nc3C(F)(F)F)nn2)c1C1CC1 [Compound 58, 1-(6-cyano-3-cyclopropyl-2-ethoxy-4-pyridyl)-3-[[5-methyl-6-[1-methyl-3-(trifluoromethyl)pyrazol-4-yl]pyridazin-3-yl]methyl]urea] | ≤ 4.70 | 6.65 | ≤ 4.70 | 7.16
